# Assay results taken from DBAASP.
# Experiments:
# Test in all cases: ≥ marks a high value that may be exact or a test limit, other limits are often not marked, values filed in µg/mL are converted to µM
# [1] = tested on: Pseudomonas aeruginosa Z61
# [2] = tested on: Staphylococcus aureus C623
# [3] = tested on: Staphylococcus epidermidis C621
# [4] = tested on: Salmonella enterica serovar typhimurium MS7953s
# [5] = tested on: Aeromonas salmonicida 97-4
# Escherichia coli DC2 = tested on: Escherichia coli DC2
# [6] = tested on: Aeromonas salmonicida 99-1
# [7] = tested on: Salmonella enterica subsp. enterica serovar Typhimurium ATCC 14028s
# [8] = tested on: Escherichia coli CGSC 4908
# [9] = tested on: Pseudomonas aeruginosa K799
# Candida albicans C627 = tested on: Candida albicans C627
# Escherichia coli UB1005 = tested on: Escherichia coli UB1005
# [10] = tested on: Enterococcus faecalis 981
# Nocardia asteroides = tested on: Nocardia asteroides
# [11] = tested on: Staphylococcus aureus ATCC 25923
# [12] = tested on: Bacillus subtilis IFO 3134
# [13] = tested on: Pseudomonas aeruginosa IFO 12582
# [14] = tested on: Escherichia coli IFO 12734
# [15] = tested on: Staphylococcus aureus IFO 12732
# [16] = tested on: Aspergillus niger IP218-53
# [17] = tested on: Aspergillus fumigatus IP1025-70
# [18] = tested on: Staphylococcus aureus IP76-25
# [19] = tested on: Aeromonas caviae IP67-16T
# [20] = tested on: Nocardia brasiliensis IP16-80
# [21] = tested on: Saccharomyces cerevisiae IP118079
# [22] = tested on: Enterococcus faecalis IP103214
# Escherichia coli IP76-24 = tested on: Escherichia coli IP76-24
# [23] = tested on: Candida albicans IP884-65
# [24] = tested on: Cryptococcus neoformans IP960-67
# [25] = tested on: Trichophyton simii IP1063-74
# [26] = tested on: Enterococcus faecalis ATCC 29212
# Listeria monocytogenes = tested on: Listeria monocytogenes
# [27] = tested on: Staphylococcus epidermidis
structure (smiles),measurement,setting,value
CC[C@H](C)[C@H](NC(=O)[C@H](Cc1cnc[nH]1)NC(=O)[C@H](CCCCN)NC(=O)[C@H](C)NC(=O)[C@H](C)NC(=O)[C@H](Cc1cnc[nH]1)NC(=O)[C@H](CCCNC(=N)N)NC(=O)CNC(=O)[C@H](Cc1cnc[nH]1)NC(=O)[C@H](CCCCN)NC(=O)[C@H](Cc1ccccc1)NC(=O)[C@@H](NC(=O)[C@H](CO)NC(=O)CNC(=O)[C@H](Cc1c[nH]c2ccccc12)NC(=O)CN)[C@@H](C)CC)C(=O)NCC(=O)N[C@@H](Cc1cnc[nH]1)C(=O)N[C@@H](C)C(=O)N[C@@H](C)C(=O)N[C@H](C(=O)N[C@@H](CC(N)=O)C(=O)N[C@@H](Cc1cnc[nH]1)C(=O)N[C@@H](Cc1ccc(O)cc1)C(=O)N[C@@H](CC(C)C)C(C)=O)C(C)C [GWGSIFKHGRHAAKHIGHAAVNHYL],MIC,[1],1.45 µM
same,MIC,[2],11.6 µM
same,MIC,[3],23.1 µM
same,MIC,[4],1.45 µM
same,MIC,[5],1.45 µM
same,MIC,Escherichia coli DC2,0.723 µM
same,MIC,[6],1.45 µM
same,MIC,[7],23.1 µM
same,MIC,[8],1.45 µM
same,MIC,[9],5.79 µM
same,MIC,Candida albicans C627,11.6 µM
same,MIC,Escherichia coli UB1005,1.45 µM
CC[C@H](C)[C@H](NC(=O)[C@H](CCCCN)NC(=O)[C@@H]1CCCN1C(=O)[C@H](CC(C)C)NC(=O)[C@H](CC(C)C)NC(=O)[C@H](CO)NC(=O)CNC(=O)[C@H](CC(C)C)NC(=O)[C@H](C)NC(=O)CNC(=O)[C@H](CC(C)C)NC(=O)[C@H](CC(C)C)NC(=O)[C@H](Cc1ccccc1)NC(=O)[C@@H]1CCCN1C(=O)[C@H](Cc1ccccc1)NC(=O)[C@@H](N)Cc1ccccc1)C(=O)N[C@@H](Cc1ccccc1)C(N)=O [FFPFLLGALGSLLPKIF],MIC,[10],25 µM
same,MIC,Nocardia asteroides,6.3 µM
same,MIC,[11],12.5 µM
CC[C@H](C)[C@H](NC(=O)[C@H](C)NC(=O)[C@@H]1CCCN1C(=O)[C@@H](NC(=O)[C@@H](NC(=O)[C@H](Cc1cnc[nH]1)NC(=O)[C@H](C)NC(=O)[C@H](C)NC(=O)[C@@H](NC(=O)[C@H](CCCCN)NC(=O)[C@H](C)NC(=O)[C@H](CC(C)C)NC(=O)[C@@H](NC(=O)CNC(=O)[C@H](Cc1ccccc1)NC(=O)CN)C(C)C)C(C)C)C(C)C)C(C)C)C(=O)N[C@@H](C)C(=O)N[C@@H](CCC(=O)O)C(=O)N[C@@H](Cc1cnc[nH]1)C(=O)N[C@@H](Cc1ccccc1)C(N)=O [GFGVLAKVAAHVVPAIAEHF],MIC,[12],≥ 64 µM
same,MIC,[13],≥ 64 µM
same,MIC,[14],≥ 64 µM
same,MIC,[15],≥ 64 µM
CC[C@H](C)[C@H](NC(=O)[C@H](C)NC(=O)[C@@H]1CCCN1C(=O)[C@@H](NC(=O)[C@@H](NC(=O)[C@H](Cc1cnc[nH]1)NC(=O)[C@H](C)NC(=O)[C@H](C)NC(=O)[C@@H](NC(=O)[C@H](CCCCN)NC(=O)[C@H](C)NC(=O)[C@H](CC(C)C)NC(=O)[C@@H](NC(=O)CNC(=O)[C@H](Cc1ccccc1)NC(=O)[C@H](CC(C)C)NC(=O)CN)C(C)C)C(C)C)C(C)C)C(C)C)C(=O)N[C@@H](C)C(=O)N[C@@H](CCC(=O)O)C(=O)N[C@@H](Cc1cnc[nH]1)C(N)=O [GLFGVLAKVAAHVVPAIAEH],MIC,[12],≥ 64 µM
same,MIC,[13],≥ 64 µM
same,MIC,[14],≥ 64 µM
same,MIC,[15],≥ 64 µM
CC[C@H](C)[C@H](NC(=O)[C@H](CCCNC(=N)N)NC(=O)[C@H](CCCNC(=N)N)NC(=O)[C@H](CC(C)C)NC(=O)[C@@H](N)Cc1c[nH]c2ccccc12)C(=O)NCC(=O)N[C@@H](CCCCN)C(=O)NCC(=O)N[C@H](C(=O)N[C@@H](CCCCN)C(=O)N[C@H](C(=O)N[C@H](C(=O)NCC(=O)NCC(=O)N[C@@H](C)C(=O)N[C@@H](C)C(=O)N[C@@H](CC(C)C)C(=O)N[C@@H](CC(=O)O)C(=O)N[C@@H](Cc1cnc[nH]1)C(=O)N[C@@H](CC(C)C)C(N)=O)[C@@H](C)CC)[C@@H](C)CC)C(C)C [WLRRIGKGVKIIGGAALDHL],MIC,[1],14.7 µM
same,MIC,[2],29.4 µM
same,MIC,[3],29.4 µM
same,MIC,[4],29.4 µM
same,MIC,[5],≥ 58.9 µM
same,MIC,Escherichia coli DC2,29.4 µM
same,MIC,[6],≥ 58.9 µM
same,MIC,[7],29.4 µM
same,MIC,[8],29.4 µM
same,MIC,[9],29.4 µM
same,MIC,Candida albicans C627,29.4 µM
same,MIC,Escherichia coli UB1005,29.4 µM
CC[C@H](C)[C@H](NC(=O)CNC(=O)[C@H](CCCCN)NC(=O)[C@H](CC(C)C)NC(=O)[C@H](CCSC)NC(=O)[C@H](CC(N)=O)NC(=O)[C@H](CCCCN)NC(=O)[C@H](Cc1c[nH]c2ccccc12)NC(=O)[C@H](CC(C)C)NC(=O)[C@H](C)N)C(=O)NCC(=O)N[C@@H](CCCCN)C(=O)N[C@@H](CC(C)C)C(=O)N[C@@H](C)C(=O)NCC(=O)N[C@@H](CCCCN)C(=O)N[C@@H](C)C(=O)N[C@@H](C)C(=O)N[C@@H](CC(C)C)C(=O)NCC(N)=O [ALWKNMLKGIGKLAGKAALG],MIC,[16],15 µM
same,MIC,[17],15 µM
same,MIC,[18],8 µM
same,MIC,[19],2 µM
same,MIC,[20],30 µM
same,MIC,[21],4 µM
same,MIC,[22],2 µM
same,MIC,Escherichia coli IP76-24,2 µM
same,MIC,[23],4 µM
same,MIC,[24],1 µM
same,MIC,[25],15 µM
CC[C@H](C)[C@H](NC(=O)CNC(=O)[C@H](CCCCN)NC(=O)[C@H](CC(C)C)NC(=O)[C@H](CCSC)NC(=O)[C@H](CC(N)=O)NC(=O)[C@H](CCCCN)NC(=O)[C@H](Cc1c[nH]c2ccccc12)NC(=O)[C@H](CC(C)C)NC(=O)[C@H](C)N)C(=O)NCC(=O)N[C@@H](CCCCN)C(=O)N[C@@H](CC(C)C)C(=O)N[C@@H](C)C(=O)NCC(=O)N[C@@H](CCCCN)C(N)=O [ALWKNMLKGIGKLAGK],MIC,[16],15 µM
same,MIC,[17],8 µM
same,MIC,[18],≥ 60 µM
same,MIC,[19],2 µM
same,MIC,[20],≥ 70 µM
same,MIC,[21],4 µM
same,MIC,[22],2 µM
same,MIC,Escherichia coli IP76-24,2 µM
same,MIC,[23],8 µM
same,MIC,[24],2 µM
same,MIC,[25],8 µM
CC[C@H](C)[C@@H]1NC(=O)[C@H](C(C)C)NC(=O)[C@H](C(C)C)NC(=O)[C@H]([C@@H](C)CC)NC(=O)[C@@H]2CCCN2C(=O)[C@@H](NC(=O)[C@H](CCCN=C(N)N)NC(=O)[C@@H](N)CCCN=C(N)N)CSSC[C@@H](C(=O)N[C@@H](CCCN=C(N)N)C(=O)O)NC(=O)[C@H](C(C)C)NC(=O)[C@H](CCCN=C(N)N)NC1=O [RRCPIVVIRVCR],MIC,[11],21.8 µM
same,MIC,[26],> 21.8 µM
same,MIC,Listeria monocytogenes,10.9 µM
same,MIC,[7],10.9 µM
same,MIC,[9],21.8 µM
same,MIC,[27],21.8 µM
same,MIC,Escherichia coli UB1005,2.72 µM
